# Measured values reported in US11945794B2, “Nuclear transport modulators and uses thereof” (Karyopharm Therapeutics Inc., priority 2013, dated 2024).
# What was measured:
# Assay in all cases: MTT assay panel
# Assay type in all cases: cell-based
# NCI-H28 = settings: Homo sapiens; NCI-H28 cells, 72 hours
# Procedure: (§1) Compound 124 was further tested against a panel of selected solid and hematological cancer cell lines and selected normal cell lines in an MTT assay. Briefly, the various cell lines above were plated at different densities on day 1. […] Cell Titer AQueous One was added to each well, and the plates were read in a plate reader at OD 495.
# MS751 = MS751 cells, 72 hours
# Procedure: as §1
# PATU-8988S = PATU-8988S cells, 72 hours
# Procedure: as §1
# SK-CO-1 = settings: Homo sapiens; SK-CO-1 cells, 72 hours
# Procedure: as §1
# HeLa = settings: Homo sapiens; HeLa cells, 72 hours
# Procedure: as §1
# Pfieffer = Pfieffer cells, 72 hours
# Procedure: as §1
# CAPAN-1 = settings: Homo sapiens; CAPAN-1 cells, 72 hours
# Procedure: as §1
# HEP3B = settings: Homo sapiens; HEP3B cells, 72 hours
# Procedure: as §1
# SW-1417 = settings: Homo sapiens, SW1417; SW-1417 cells, 72 hours
# Procedure: as §1
# MM1R = settings: MM.1R; MM1R cells, 72 hours
# Procedure: as §1
# PANC-10.05 = settings: Homo sapiens, Panc1005; PANC-10.05 cells, 72 hours
# Procedure: as §1
# BL-2 = settings: BL2; BL-2 cells, 72 hours
# Procedure: as §1
# NCI-H69 = settings: Homo sapiens; NCI-H69 cells, 72 hours
# Procedure: as §1
# MSTO-211H = settings: Homo sapiens; MSTO-211H cells, 72 hours
# Procedure: as §1
# MDA-MB-231 = settings: Homo sapiens; MDA-MB-231 cells, 72 hours
# Procedure: as §1
# MDA-MB-361 = settings: Homo sapiens; MDA-MB-361 cells, 72 hours
# Procedure: as §1
# MCF7 = settings: Homo sapiens; MCF7 cells, 72 hours
# Procedure: as §1
# BL-40 = BL-40 cells, 72 hours
# Procedure: as §1
# Tera-1 = Tera-1 cells, 72 hours
# Procedure: as §1
# HPAC = settings: Homo sapiens; HPAC cells, 72 hours
# Procedure: as §1
# LoVo = settings: Homo sapiens; LoVo cells, 72 hours
# Procedure: as §1
# MV-4-11 = settings: Homo sapiens, MV4-11; MV-4-11 cells, 72 hours
# Procedure: as §1
# MOLT4 = settings: Homo sapiens, MOLT-4; MOLT4 cells, 72 hours
# Procedure: as §1
# SW-900 = settings: Homo sapiens, SW900; SW-900 cells, 72 hours
# Procedure: as §1
# HEL.92.1.7 = settings: Homo sapiens; HEL.92.1.7 cells, 72 hours
# Procedure: as §1
# NCI-H2122 = settings: Homo sapiens; NCI-H2122 cells, 72 hours
# Procedure: as §1
# NCI-H2170 = settings: Homo sapiens; NCI-H2170 cells, 72 hours
# Procedure: as §1
# SW-403 = settings: Homo sapiens; SW-403 cells, 72 hours
# Procedure: as §1
# DLD-1 = settings: Homo sapiens; DLD-1 cells, 72 hours
# Procedure: as §1
# RKO = settings: Homo sapiens; RKO cells, 72 hours
# Procedure: as §1
# SKOV3 = settings: Homo sapiens, SK-OV-3; SKOV3 cells, 72 hours
# Procedure: as §1
# HCT-15 = settings: Homo sapiens; HCT-15 cells, 72 hours
# Procedure: as §1
# LS-174T = settings: Homo sapiens, LS174T; LS-174T cells, 72 hours
# Procedure: as §1
# ANBL-6 = settings: Homo sapiens; ANBL-6 cells, 72 hours
# Procedure: as §1
# PATU-8988T = settings: Homo sapiens; PATU-8988T cells, 72 hours
# Procedure: as §1
# L3.6pl = settings: Homo sapiens; L3.6pl cells, 72 hours
# Procedure: as §1
# NCI-H1299 = settings: Homo sapiens; NCI-H1299 cells, 72 hours
# Procedure: as §1
# NCI-H508 = settings: Homo sapiens; NCI-H508 cells, 72 hours
# Procedure: as §1
# SW-48 = settings: Homo sapiens, SW48; SW-48 cells, 72 hours
# Procedure: as §1
structure (smiles),measurement,setting,value
"NC(=O)/C(=C/n1cnc(-c2cc(C(F)(F)F)cc(C(F)(F)F)c2)n1)c1cncnc1 [Compound 124, (E)-3-(3-(3,5-bis(trifluoromethyl)phenyl)-1H-1,2,4-triazol-1-yl)-2-(pyrimidin-5-yl)acrylamide]",IC50,NCI-H28,0.34 µM
same,IC50,MS751,0.4 µM
same,IC50,PATU-8988S,10 µM
same,IC50,SK-CO-1,0.43 µM
same,IC50,HeLa,1.05 µM
same,IC50,Pfieffer,0.14 µM
same,IC50,CAPAN-1,0.02 µM
same,IC50,HEP3B,0.3 µM
same,IC50,SW-1417,> 10 µM
same,IC50,MM1R,0.008 µM
same,IC50,PANC-10.05,0.99 µM
same,IC50,BL-2,0.03 µM
same,IC50,NCI-H69,1.64 µM
same,IC50,MSTO-211H,0.07 µM
same,IC50,MDA-MB-231,0.12 µM
same,IC50,MDA-MB-361,> 10 µM
same,IC50,MCF7,0.68 µM
same,IC50,BL-40,0.4 µM
same,IC50,Tera-1,0.15 µM
same,IC50,HPAC,10 µM
same,IC50,LoVo,0.68 µM
same,IC50,MV-4-11,0.1 µM
same,IC50,MOLT4,0.01 µM
same,IC50,SW-900,1.85 µM
same,IC50,HEL.92.1.7,0.23 µM
same,IC50,NCI-H2122,0.84 µM
same,IC50,NCI-H2170,2.14 µM
same,IC50,SW-403,0.91 µM
same,IC50,DLD-1,0.8 µM
same,IC50,RKO,0.45 µM
same,IC50,SKOV3,> 10 µM
same,IC50,HCT-15,0.46 µM
same,IC50,LS-174T,10 µM
same,IC50,ANBL-6,0.22 µM
same,IC50,PATU-8988T,7.17 µM
same,IC50,L3.6pl,0.47 µM
same,IC50,NCI-H1299,0.05 µM
same,IC50,NCI-H508,0.86 µM
same,IC50,SW-48,0.12 µM
